{
  "source": "patent US5840936A",
  "about": "“Aminosterol compounds useful as inhibitors of the sodium/proton exchanger (NHE)” (priority 1995, dated 1998)",
  "key": {"[1]": {"test_system": "Xenopus tadpoles, stage 59-60", "assay": "Xenopus tadpole assay", "settings": "in vivo"}, "ELC": {"test_system": "ELC", "assay": "ELC MTT", "type": "cell-based", "settings": "Table II; read-out: ELC MTT, Minimum Effective Concentration"}, "human melanoma": {"test_system": "human melanoma", "assay": "Time course of effect on melanoma growth; apoptosis", "type": "cell-based"}, "[2]": {"test_system": "chick embryo vitelline capillaries", "assay": "Chick embryo vitelline capillary regression assay", "type": "in vivo", "design": "key to Vitelline capillary regression: +: Vascular reactivity; 0: No vascular reactivity; +/-: Equivocal reactivity", "experimental": "Using the chick embryo vitelline capillaries assay, compounds were tested for their ability to induce capillary regression. Each compound was applied in 0.1 ml of 15% Ficol 400 and PBS onto the embryo, and vascular regression was assessed after 60 minutes.\nThe 3-day chick embryo consists of an embryonic disc from which numerous vessels emerge and return, forming a \"FIG. 8\"-shaped structure--the embryo in the center with vascular loops extending outward over both poles. […] Following a lag period of around 15 minutes, the constriction of continuity between capillary and secondary vessels, generally on the \"venous\" side, was observed. Continued pulsatile blood flow progressed, resulting in a \"swelling\" of the blind tube, followed by a pinching off of the remaining connection and formation of an enclosed vascular sac resembling a \"blood island.\" This process progressed until only the largest vessels remained intact."}, "HM": {"test_system": "HM", "assay": "HM MTT assay", "type": "cell-based", "settings": "Table II; read-out: HM MTT assay, Minimum Effective Concentration"}},
  "data": [
    {"smiles": "CC(C)CCC[C@@H](C)[C@H]1CC[C@H]2[C@@H]3CC[C@H]4C[C@@H](NCCCNCCCCNCCCN)CC[C@]4(C)[C@H]3CC[C@]12C", "note": "[Compound 353]", "values": [
      {"measurement": "Pharmacologic similarity in tadpole assay", "setting": "[1]", "result": "effects like those produced by compound 1436"},
      {"measurement": "minimal effective concentration", "setting": "ELC", "result": 1.9, "unit": "µg/mL"},
      {"measurement": "Apoptosis", "setting": "human melanoma", "result": "apoptotic cell death has been induced"},
      {"measurement": "Time course of effect on growth of melanoma", "setting": "human melanoma", "result": "most pronounced over 48 hours, with less of an effect noted within the first 12 hours of incubation"},
      {"measurement": "Vitelline capillary regression", "setting": "[2]; 1 μg applied", "result": "+/-"},
      {"measurement": "Effect on chick embryo vessels", "setting": "[2]; 3- to 5-day chick embryo", "result": "no effect on the chick embryo capillary bed"},
      {"measurement": "minimal effective concentration", "setting": "HM", "result": 3, "unit": "µg/mL"}
    ]}
  ]
}
